Values joined by “and” are separate entries in the source; they are usually repeats but may differ in a detail not shown here. Equal entries are not always repeated.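 Assay format: 96-well plates, 48-hour exposure. GI50 is the concentration that inhibits growth by half. TGI denotes the concentration required for complete inhibition of growth.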
Assays:
Experiment in all cases: NCI tumour cell line growth inhibition, 48 h
[1] = system: A498 renal
[2] = system: MDA-MB-231 breast
[3] = system: CCRF-CEM leukemia
[4] = system: HL-60(TB) leukemia
[5] = system: NCI-H460 lung
[6] = system: LOX IMVI melanoma
[7] = system: U251 CNS
[8] = system: SR leukemia
[9] = system: NCI-H226 lung
[10] = system: EKVX NSCLC

Row | SMILES | GI50 [1] | TGI [1] | GI50 [2] | TGI [2] | GI50 [3] | TGI [3] | GI50 [4] | TGI [4] [µM] | GI50 [5] | TGI [5] | GI50 [6] | TGI [6] | GI50 [7] | TGI [7] | GI50 [8] | TGI [8] | GI50 [9] | TGI [9] | GI50 [10] | TGI [10] [µM]
1 | NCCCCCNc1noc(Cc2c[nH]c3cc(Br)ccc23)n1 | 1760 nM | 10.7 µM | 2780 nM | 15.7 µM | 1810 nM | 8.2 µM | 1660 nM | 9.15 | 3120 nM | 12 µM | 2810 nM | 17.6 µM | 2890 nM | 16.6 µM | 406 nM | 14.1 µM | 12.7 µM | 26.5 µM |  | 
2 | C/C=C/C/C=C/[C@H](C)C[C@H](O)[C@@H]1C[C@@H]2O[C@H]2/C=C/[C@@H]2OC(C)(C)O[C@H]2/C=C/C[C@H](C)CC(=O)O1 | > 100000 nM | > 100 µM | 36100 nM | > 100 µM | 2780 nM | 56.4 µM | 5600 nM | 30.9 | 5650 nM | > 100 µM | 7620 nM | > 100 µM | 13500 nM | > 100 µM | 8080 nM | > 100 µM | 6.08 µM | > 100 µM | 21 µM | > 100
3 | CC(C)c1ccc(C2NC(=S)NC3=C2c2ccccc2C3=O)cc1 (configuration not stated) |  | > 60.8 µM |  | 31 µM |  | > 68 µM |  | 32.5 |  | > 67.3 µM |  | 35.1 µM |  | > 58.7 µM |  | 30.6 µM |  | > 64.6 µM |  | > 58.6
4 | COc1cc(-n2cc(-c3ccccc3)[nH]c2=O)cc(OC)c1OC | 35100 nM | > 100 µM | 37200 nM | > 100 µM | > 100000 nM | > 100 µM | 60300 nM | > 100 | 52200 nM | > 100 µM | > 100000 nM | > 100 µM | 41300 nM | > 100 µM | > 100000 nM | > 100 µM | 57.4 µM | > 100 µM | 25.4 µM | > 100
5 | CN1CCN(c2ccc(OC(F)(F)F)c(Nc3ncc4c(n3)-c3c(c(C(N)=O)nn3CCO)CC4)c2)CC1 | 46.9 nM and 101 nM | 0.638 µM and 0.588 µM | 75.5 nM and 59 nM | 8.61 µM and 3.23 µM | 19.7 nM and 28.3 nM | 28.5 µM | 23.7 nM and 29.8 nM | 0.0744 | 39.1 nM and 84.9 nM | 14.9 µM and > 10 µM | 37.2 nM and 51.9 nM | 16.1 µM and > 3.87 µM | 52 nM and 62.8 nM | 21.7 µM and > 10 µM | 23.1 nM and 30 nM | 18.6 µM and > 3.19 µM | 4.26 µM and 1.21 µM | 50.4 µM and > 10 µM | 0.0907 µM and 0.169 µM | > 88.2
6 | O=[N+]([O-])c1cccc(-c2nc(-c3ccc(Cl)cc3Cl)cn2-c2ccccc2)c1 |  | > 9.06 µM | 1930 nM | > 20.5 µM |  | > 18.7 µM | > 33300 nM | > 33.3 | 598 nM | 1.12 µM | 2980 nM | > 30.7 µM | 614 nM | 1.26 µM | 1240 nM | > 33.3 µM | 3.17 µM | > 33.3 µM | 0.56 µM | 2.5
7 | CCOC(=O)C(Cc1c[nH]c2cc(N(CCO)CCO)ccc12)(NC(C)=O)C(=O)OCC | 570000 nM | > 1000 µM | 960000 nM | > 1000 µM |  | 57.2 µM and 448 µM | 133000 nM | 489 | 433000 nM | > 1000 µM | 217000 nM | > 1000 µM | 309000 nM | > 1000 µM | 16800 nM and 34600 nM |  | > 1000 µM | > 1000 µM | > 1000 µM | > 1000
8 | Cc1ccc(Nc2cc(Cl)c([N+](=O)[O-])cc2[N+](=O)[O-])cc1 | 13300 nM | 26.1 µM | 4420 nM | 15.8 µM | 1960 nM | 19.8 µM | 3620 nM | 14.6 | 2350 nM | 5.45 µM | 1150 nM | 5.62 µM | 3360 nM | 12.4 µM | 927 nM | 18.1 µM | 2.59 µM | 6.81 µM | 14.7 µM | 29.7
9 | C=C1C(=O)OC2C1C(OC(=O)/C(C)=C/C)CC(O)(CCl)C1C(O)C=C(C)C21O (configuration not stated) |  | > 60.1 µM |  | 30.9 µM |  | > 36.8 µM |  | 18 |  | 36.2 µM |  | 17.8 µM |  | 65.1 µM |  | 29.2 µM |  | 46.5 µM |  | 29.9
10 | OB(O)c1ccccc1C#Cc1ccccc1B(O)O |  | 15.6 µM |  | 66.3 µM |  | > 100 µM |  | > 100 |  | 48.2 µM |  | 51.1 µM |  | 78.3 µM |  | > 100 µM |  |  |  | 54.2
11 | O=C(O)C1CC=CCC1C(=O)Nc1cccc(O)c1 (configuration not stated) |  | > 100 µM |  | > 100 µM |  |  |  | > 100 |  | > 100 µM |  | > 100 µM |  | > 100 µM |  | > 100 µM |  | > 100 µM |  | > 100
12 | COc1cc(Cl)cc(-c2nn(-c3cccc(NC(=O)Nc4cccc(C(F)(F)F)c4)c3)cc2-c2ccncc2)c1 | 2250 nM | 25.6 µM | 1590 nM | 4.91 µM | 1200 nM | 5.36 µM | 1910 nM | 5.51 | 840 nM | 4.66 µM | 1810 nM | 7.04 µM | 879 nM | 2.91 µM | 1140 nM | 4.39 µM | 2.26 µM | 11.5 µM |  | 
13 | COc1ccc(/C(C)=N/NC(=O)CSc2nc3ccccc3c(=O)n2CCc2ccc(S(N)(=O)=O)cc2)cc1 | 2100 nM | 4.12 µM | 1870 nM | 3.88 µM | 4440 nM | > 100 µM | 16600 nM | > 100 | 2030 nM | 3.81 µM |  |  |  |  | 2520 nM | > 100 µM | 1.95 µM | 4.18 µM | 2.85 µM | 12.8
14 | Nc1ncnc2c1ncn2C1OC(COS(N)(=O)=O)C(O)C1O (configuration not stated) | 16.4 nM | 0.0344 µM | < 1 nM |  |  | 0.173 µM | < 1 nM | 0.00378 |  |  | 18 nM | 0.0382 µM |  |  | < 1 nM | 0.0136 µM | 0.00203 µM | 0.00398 µM |  | 
15 | NCCCOc1cc2ccccc2cc1C(=O)Nc1ccc(Cl)cc1OC(=O)c1cc2ccccc2cc1OCCCN | 1530 nM | 2.92 µM | 596 nM | 1.99 µM | 413 nM | 1.39 µM | 517 nM | 2.37 | 195 nM | 0.345 µM | 162 nM | 0.316 µM |  |  | 257 nM | 1.48 µM |  |  |  | 
